Here are results for three compounds from patent US8642766B2, “Synthesis of (+) cortistatin A and related compounds” (priority 2008, dated 2014).

Molecules are shown by their SMILES.

Assay [1] deals with HUVECs. The assay is described as follows: Assay to determine activity against HUVECs (carried out by Pfizer, Inc.). Type of assay: cell-based, human. The following applies: for IC50: synthetic material, tested by Pfizer, Inc. The text has this:
[Aoki et al., J. Am. Chem. Soc. 2006, 128:3148-3149]

Assay [2] relates to human umbilical vein endothelial cells (HUVECs). As to conditions: cited from earlier work.

The IC50 is the concentration needed to halve the response being measured. In assay [1], `CN(C)[C@H]1C[C@@]23CC[C@@]4(O2)C(=CC[C@]2(C)[C@@H](c5ccc6ccncc6c5)CC[C@H]24)C=C3[C@@H](O)[C@@H]1O` [17-epi-cortistatin A] displayed an IC50 of more than 1000 nM.
With `CN(C)[C@H]1C[C@@]23CC[C@@]4(O2)C(=CC[C@]2(C)[C@@H](c5ccc6ccncc6c5)CC[C@H]24)C=C3[C@@H](O)[C@@H]1O` [cortistatin A, (+)-cortistatin A], the IC50 in assay [1] (Homo sapiens, HUVEC) is 2.43 nM; in assay [2] (natural cortistatin A tested by Kobayashi group, Aoki et al., J. Am. Chem. Soc. 2006, read-out: IC50 against HUVECs, natural cortistatin A) it was 1.8 nM. Also, the “IC50 (testing cells)/IC50 (HUVECs)” value in assay [2] (selectivity versus healthy or cancerous cell lines, Aoki et al. 2006) is not below 3300.
In assay [1] (Homo sapiens, HUVEC), `CN(C)[C@H]1C[C@@]23CC[C@@]4(O2)C(=CC[C@]2(C)C(c5ccc6ccncc6c5)=CC[C@H]24)C=C3[C@@H](O)[C@@H]1O` [Δ^16-cortistatin A] returned an IC50 of 3.88 nM. Besides, in assay [1] (statement in words, refers to the HUVEC results discussed below it), the “biological activity compared with (+)cortistatin A” value is on record as “substantially the same as that of (+)cortistatin A”.
